The source of these data is patent US20260138976A1 (Hoffmann-La Roche Inc., priority 2022, published 2026).

Assay [1] has as its target T1, DGKζ (hDGKzeta(1-928)-N-His) (Homo sapiens, UniProt Q13574).
T1 construct: hDGKzeta(1-928)-N-His; His (N); made in house; host or cells: Sf21 insect cells (baculovirus)
In words: In vitro DGK inhibition assay, DGKzeta ADP Glo (in house). The assay is classed as biochemical. To be noted: 2 nM DGKζ, 50 μM ATP, 125 uM DLG in liposomes, 1 hour reaction. In outline: (§1)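 Full-length His-tagged human DGKα (4 nM) or DGKζ (2 nM), expressed in Sf21 cells, phosphorylated 125 µM DLG in PS/PC liposomes with ATP at 25 µM (α) or 50 µM (ζ) for 1 h. ADP was measured by ADP-Glo luminescence. Compounds were tested as 11-point 1:3 series in 2% DMSO.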

Assay [2] addresses T2, DGKα (hDGKalpha(1-735)-N-His) (Homo sapiens, UniProt P23743).
T2 construct: hDGKalpha(1-735)-N-His; His (N); made in house; host or cells: Sf21 insect cells (baculovirus)
In words: In vitro DGK inhibition assay, DGKalpha ADP Glo (in house). The assay is classed as biochemical. To be noted: 4 nM DGKα, 25 μM ATP, 125 uM DLG in liposomes, 1 hour reaction. In outline: as §1

A value given as a limit tells only on which side of the number the result lay.

T1 sequence (Q13574 whole entry): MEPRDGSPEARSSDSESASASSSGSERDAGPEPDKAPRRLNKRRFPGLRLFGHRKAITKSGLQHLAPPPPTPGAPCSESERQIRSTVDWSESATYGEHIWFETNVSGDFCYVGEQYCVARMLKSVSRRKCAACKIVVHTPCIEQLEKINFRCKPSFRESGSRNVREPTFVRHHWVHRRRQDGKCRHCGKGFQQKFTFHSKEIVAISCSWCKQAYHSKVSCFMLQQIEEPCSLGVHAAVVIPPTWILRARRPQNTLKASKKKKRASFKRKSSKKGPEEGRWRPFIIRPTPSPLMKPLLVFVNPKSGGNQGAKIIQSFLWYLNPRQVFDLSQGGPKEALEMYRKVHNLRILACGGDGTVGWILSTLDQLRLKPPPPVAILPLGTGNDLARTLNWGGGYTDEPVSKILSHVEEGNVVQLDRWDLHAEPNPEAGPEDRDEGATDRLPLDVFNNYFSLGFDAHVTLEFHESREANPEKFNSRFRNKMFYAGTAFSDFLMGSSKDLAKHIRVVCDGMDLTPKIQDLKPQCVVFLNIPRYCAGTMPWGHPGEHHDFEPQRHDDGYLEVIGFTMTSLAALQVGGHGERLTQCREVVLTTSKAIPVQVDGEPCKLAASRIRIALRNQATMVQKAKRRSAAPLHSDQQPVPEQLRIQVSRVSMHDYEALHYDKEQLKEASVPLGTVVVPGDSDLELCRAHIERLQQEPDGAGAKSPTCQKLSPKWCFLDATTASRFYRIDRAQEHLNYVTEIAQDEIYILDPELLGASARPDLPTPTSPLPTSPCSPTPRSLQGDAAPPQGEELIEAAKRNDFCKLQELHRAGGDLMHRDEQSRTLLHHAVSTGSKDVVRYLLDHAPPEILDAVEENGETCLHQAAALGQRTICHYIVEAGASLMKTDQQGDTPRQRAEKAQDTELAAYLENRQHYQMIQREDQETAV
T2 sequence (P23743 whole entry): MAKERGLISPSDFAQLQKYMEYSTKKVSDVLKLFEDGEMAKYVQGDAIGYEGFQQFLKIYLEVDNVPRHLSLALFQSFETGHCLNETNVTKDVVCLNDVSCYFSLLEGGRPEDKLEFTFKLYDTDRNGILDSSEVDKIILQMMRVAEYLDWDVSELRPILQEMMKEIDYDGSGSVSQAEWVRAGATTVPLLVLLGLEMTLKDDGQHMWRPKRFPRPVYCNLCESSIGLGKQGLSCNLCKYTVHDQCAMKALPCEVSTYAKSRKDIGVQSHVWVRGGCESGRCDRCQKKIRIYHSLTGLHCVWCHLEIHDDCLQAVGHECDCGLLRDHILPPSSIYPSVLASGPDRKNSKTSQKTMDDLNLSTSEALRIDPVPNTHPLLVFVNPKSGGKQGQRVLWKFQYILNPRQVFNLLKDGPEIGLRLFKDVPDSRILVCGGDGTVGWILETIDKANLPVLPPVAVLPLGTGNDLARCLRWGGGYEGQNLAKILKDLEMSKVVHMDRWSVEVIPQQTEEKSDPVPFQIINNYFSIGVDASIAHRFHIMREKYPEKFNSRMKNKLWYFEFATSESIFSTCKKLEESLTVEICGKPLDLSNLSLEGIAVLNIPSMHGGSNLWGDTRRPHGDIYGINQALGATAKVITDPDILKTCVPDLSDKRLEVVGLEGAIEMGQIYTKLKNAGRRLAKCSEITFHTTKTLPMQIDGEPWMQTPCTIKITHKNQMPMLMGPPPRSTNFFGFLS

As for `Cc1nc(-c2ccc(CN3C(=O)[C@@H](N)CS(=O)(=O)c4ccc(-c5nnc(C(C)(C)C#N)o5)cc43)cc2)ccc1C(F)(F)F` [Example 114], the concentration for half-maximal inhibition (IC50) is 3720 nM in assay [1] and > 60000 nM in assay [2].

As to `N#CC1(c2nc(-c3cc4c(cc3F)S(=O)(=O)C[C@H](N)C(=O)N4Cc3ccc(-c4noc(C(F)(F)F)n4)cc3)no2)CC1` [Example 16, 1-[3-[(3R)-3-amino-8-fluoro-1,1,4-trioxo-5-[[4-[5-(trifluoromethyl)-1,2,4-oxadiazol-3-yl]phenyl]methyl]-2,3-dihydro-1λ^6,5-benzothiazepin-7-yl]-1,2,4-oxadiazol-5-yl]cyclopropanecarbonitrile], the values for the half-maximal inhibitory concentration (IC50) in assay [1] and in assay [2] were 281 nM and 1740 nM, respectively.

With `COC(=O)N1CC(c2nnc(-c3ccc4c(c3)N(Cc3ccc(-c5noc(C(C)(C)C)n5)cc3)C(=O)[C@@H](N)CS4(=O)=O)o2)CC(F)(F)C1` (stereo partly drawn) [Example 56, methyl 3,3-difluoro-5-[5-[(3R)-3-amino-5-[[4-(5-tert-butyl-1,2,4-oxadiazol-3-yl)phenyl]methyl]-1,1,4-trioxo-2,3-dihydro-1λ^6,5-benzothiazepin-7-yl]-1,3,4-oxadiazol-2-yl]piperidine-1-carboxylate], the concentration for half-maximal inhibition (IC50) was found to be 228 nM in assay [1] and 1990 nM in assay [2].

With `CC(C)(C#N)c1nnc(-c2ccc3c(c2)N(Cc2ccc(-n4nnc(C(F)(F)F)n4)cc2)C(=O)[C@@H](N)CS3(=O)=O)o1` [Example 120, 2-[5-[(3R)-3-amino-1,1,4-trioxo-5-[[4-[5-(trifluoromethyl)tetrazol-2-yl]phenyl]methyl]-2,3-dihydro-1λ^6,5-benzothiazepin-7-yl]-1,3,4-oxadiazol-2-yl]-2-methyl-propanenitrile], the figures for the IC50 in assay [1] and in assay [2] were 2020 nM and 13500 nM, respectively.

Regarding `N[C@H]1CS(=O)(=O)c2cc(F)c(-c3noc(N4CCOC5(CC5)C4)n3)cc2N(Cc2ccc(-c3noc(C(F)(F)F)n3)nc2)C1=O` [Example 14, (3R)-3-amino-8-fluoro-7-[5-(4-oxa-7-azaspiro[2.5]octan-7-yl)-1,2,4-oxadiazol-3-yl]-1,1-dioxo-5-[[6-[5-(trifluoromethyl)-1,2,4-oxadiazol-3-yl]-3-pyridyl]methyl]-2,3-dihydro-1λ^6,5-benzothiazepin-4-one], the IC50 in assay [1] was found to be 144 nM; in assay [2], 36900 nM.

On to `CC(O)(c1nnc(-c2ccc3c(c2)N(Cc2ccc(-c4noc(C5CC5)n4)cc2)C(=O)[C@@H](N)CS3(=O)=O)o1)C(F)(F)F` (stereo partly shown) [Example 170], for which the figures for the half-inhibitory concentration (IC50) in assay [1] and in assay [2] were 2000 nM and > 62500 nM, respectively.

With `CC(C)(C)c1nnc(-c2ccc(CN3C(=O)[C@@H](N)CS(=O)(=O)c4ccc(-c5nnc(C(C)(C)C)o5)cc43)cc2)o1` [Example 19, (3R)-3-amino-7-(5-tert-butyl-1,3,4-oxadiazol-2-yl)-5-[[4-(5-tert-butyl-1,3,4-oxadiazol-2-yl)phenyl]methyl]-1,1-dioxo-2,3-dihydro-1λ^6,5-benzothiazepin-4-one], the IC50 in assay [1] worked out at 783 nM; in assay [2] it was 18200 nM.

For the compound `COC(=O)N1CC(c2nnc(-c3ccc4c(c3)N(Cc3ccc(-c5ccc(C(F)(F)F)cc5)nc3)C(=O)[C@@H](N)CS4(=O)=O)o2)CC(F)(F)C1` (stereo partly drawn) [Example 57, methyl 3,3-difluoro-5-[5-[(3R)-3-amino-1,1,4-trioxo-5-[[6-[4-(trifluoromethyl)phenyl]-3-pyridyl]methyl]-2,3-dihydro-1λ^6,5-benzothiazepin-7-yl]-1,3,4-oxadiazol-2-yl]piperidine-1-carboxylate], the IC50 was found to be 2340 nM in assay [1] and 3340 nM in assay [2].

Take `N[C@H]1CS(=O)(=O)c2cc(F)c(-c3noc(N4CCOC(F)(F)C4)n3)cc2N(Cc2ccc(-c3noc(C(F)(F)F)n3)nc2)C1=O` [Example 12, (3R)-3-amino-7-[5-(2,2-difluoromorpholin-4-yl)-1,2,4-oxadiazol-3-yl]-8-fluoro-1,1-dioxo-5-[[6-[5-(trifluoromethyl)-1,2,4-oxadiazol-3-yl]-3-pyridyl]methyl]-2,3-dihydro-1λ^6,5-benzothiazepin-4-one]: the IC50 turned out to be 169 nM in assay [1] and 3040 nM in assay [2].

Regarding `CC(C)(C#N)c1nnc(-c2ccc3c(c2)N(Cc2ccc(-c4noc(C5CCC(F)(F)CC5)n4)cc2)C(=O)[C@@H](N)CS3(=O)=O)o1` [Example 101, 2-[5-[(3R)-3-amino-5-[[4-[5-(4,4-difluorocyclohexyl)-1,2,4-oxadiazol-3-yl]phenyl]methyl]-1,1,4-trioxo-2,3-dihydro-1λ^6,5-benzothiazepin-7-yl]-1,3,4-oxadiazol-2-yl]-2-methyl-propanenitrile], the figures for the IC50 in assay [1] and in assay [2] were 192 nM and 25600 nM, respectively.

Regarding `CC(C)(C#N)c1nnc(-c2ccc3c(c2)N(Cc2ccc(-c4ccc(OC(F)(F)F)cc4)nc2)C(=O)[C@@H](N)CS3(=O)=O)o1` [Example 119, 2-[5-[(3R)-3-amino-1,1,4-trioxo-5-[[6-[4-(trifluoromethoxy)phenyl]-3-pyridyl]methyl]-2,3-dihydro-1λ^6,5-benzothiazepin-7-yl]-1,3,4-oxadiazol-2-yl]-2-methyl-propanenitrile], the figures for the IC50 in assay [1] and in assay [2] were 1630 nM and 3450 nM, respectively.

Take `COc1ccc(-c2ccc(CN3C(=O)[C@@H](N)CS(=O)(=O)c4cc(F)c(-c5noc(C6(N)COC6)n5)cc43)cc2)cc1` [Example 8, (3R)-3-amino-7-[5-(3-aminooxetan-3-yl)-1,2,4-oxadiazol-3-yl]-8-fluoro-5-[[4-(4-methoxyphenyl)phenyl]methyl]-1,1-dioxo-2,3-dihydro-1λ^6,5-benzothiazepin-4-one]: the values for the IC50 in assay [1] and in assay [2] were 137 nM and 7030 nM, respectively.

In the case of `N#CC1(c2nnc(-c3ccc4c(c3)N(Cc3ccc(-c5ccc(OC(F)(F)F)cn5)cc3)C(=O)[C@@H](N)CS4(=O)=O)o2)CCC1` [Example 172, 1-[5-[(3R)-3-amino-1,1,4-trioxo-5-[[4-[5-(trifluoromethoxy)-2-pyridyl]phenyl]methyl]-2,3-dihydro-1λ^6,5-benzothiazepin-7-yl]-1,3,4-oxadiazol-2-yl]cyclobutanecarbonitrile], the IC50 came to 732 nM in assay [1] and 2520 nM in assay [2].

As to `CC(C)(C#N)c1nnc(-c2ccc3c(c2)N(Cc2ccc(-c4ccc(OC(F)(F)C(F)(F)F)cn4)cc2)C(=O)[C@@H](N)CS3(=O)=O)o1` [Example 129, 2-[5-[(3R)-3-amino-1,1,4-trioxo-5-[[4-[5-(1,1,2,2,2-pentafluoroethoxy)-2-pyridyl]phenyl]methyl]-2,3-dihydro-1λ^6,5-benzothiazepin-7-yl]-1,3,4-oxadiazol-2-yl]-2-methyl-propanenitrile], the half-inhibitory concentration (IC50) stood at 948 nM in assay [1] and 1680 nM in assay [2].

As to `CC(C)(CC#N)c1nnc(-c2ccc3c(c2)N(Cc2ccc(-c4ccc(OC(F)(F)F)cn4)cc2)C(=O)[C@@H](N)CS3(=O)=O)o1` [Example 175, 3-[5-[(3R)-3-amino-1,1,4-trioxo-5-[[4-[5-(trifluoromethoxy)-2-pyridyl]phenyl]methyl]-2,3-dihydro-1λ^6,5-benzothiazepin-7-yl]-1,3,4-oxadiazol-2-yl]-3-methyl-butanenitrile], the values for the IC50 in assay [1] and in assay [2] were 734 nM and 961 nM, respectively.

`CC(F)(F)c1ccc(-c2ccc(CN3C(=O)[C@@H](N)CS(=O)(=O)c4ccc(-c5nnc(C(C)(C)C#N)o5)cc43)cc2)nc1` [Example 109, 2-[5-[(3R)-3-amino-5-[[4-[5-(1,1-difluoroethyl)-2-pyridyl]phenyl]methyl]-1,1,4-trioxo-2,3-dihydro-1λ^6,5-benzothiazepin-7-yl]-1,3,4-oxadiazol-2-yl]-2-methyl-propanenitrile]: the values for the IC50 in assay [1] and in assay [2] were 864 nM and 2110 nM, respectively.

For `C[C@@](N)(c1nnc(-c2ccc3c(c2)N(Cc2ccc(-n4nnc(C(F)(F)F)n4)cc2)C(=O)[C@@H](N)CS3(=O)=O)o1)C(F)(F)F` [Example 156, (3R)-3-amino-7-[5-[(1R)-1-amino-2,2,2-trifluoro-1-methyl-ethyl]-1,3,4-oxadiazol-2-yl]-1,1-dioxo-5-[[4-[5-(trifluoromethyl)tetrazo 1-2-yl]phenyl]methyl]-2,3-dihydro-1λ^6,5-benzothiazepin-4-one], the IC50 in assay [1] is 2960 nM; in assay [2], 17800 nM.

As to `C[C@@](N)(c1nnc(-c2ccc3c(c2)N(Cc2ccc(-c4ccc(C(F)(F)F)cn4)cc2)C(=O)[C@@H](N)CS3(=O)=O)o1)C(F)(F)F` [Example 154, (3R)-3-amino-7-[5-[(1R)-1-amino-2,2,2-trifluoro-1-methyl-ethyl]-1,3,4-oxadiazol-2-yl]-1,1-dioxo-5-[[4-[5-(trifluoromethyl)-2-pyridyl]phenyl]methyl]-2,3-dihydro-1λ^6,5-benzothiazepin-4-one], the IC50 stood at 3100 nM in assay [1] and 23600 nM in assay [2].

As to `N[C@H]1CS(=O)(=O)c2cc(F)c(-c3noc(C4(N)COC4)n3)cc2N(Cc2ccc(-c3ccc(C(F)(F)F)cn3)cc2)C1=O` [Example 10, (3R)-3-amino-7-[5-(3-aminooxetan-3-yl)-1,2,4-oxadiazol-3-yl]-8-fluoro-1,1-dioxo-5-[[4-[5-(trifluoromethyl)-2-pyridyl]phenyl]methyl]-2,3-dihydro-1λ^6,5-benzothiazepin-4-one], the IC50 worked out at 282 nM in assay [1] and 5160 nM in assay [2].

As to `CC1(Nc2nnc(-c3cc4c(cc3F)S(=O)(=O)C[C@H](N)C(=O)N4Cc3ccc(-c4noc(C(F)(F)F)n4)cc3)o2)CC(F)(F)C1` [Example 3, (3R)-3-amino-7-[5-[(3,3-difluoro-1-methyl-cyclobutyl)amino]-1,3,4-oxadiazol-2-yl]-8-fluoro-1,1-dioxo-5-[[4-[5-(trifluoromethyl)-1,2,4-oxadiazol-3-yl]phenyl]methyl]-2,3-dihydro-1λ^6,5-benzothiazepin-4-one], the figures for the half-maximal inhibitory concentration (IC50) in assay [1] and in assay [2] were 1280 nM and 10300 nM, respectively.
